Results reported in PubChem BioAssay (NCI).
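Grown in 96-well plates, cells were treated for 48 hours with each compound at five concentrations. Insufficient inhibition: endpoint recorded as highest concentration tested. TGI denotes the concentration required for complete inhibition of growth.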

Experiments:
Assay in all cases: NCI tumour cell line growth inhibition, 48 h
[1] = tested on: BT-549 breast
[2] = tested on: HCC-2998 colon
[3] = tested on: HCT-116 colon
[4] = tested on: HCT-15 colon
[5] = tested on: IGROV1 ovarian
[6] = tested on: K-562 leukemia
[7] = tested on: LOX IMVI melanoma
[8] = tested on: MDA-MB-435
[9] = tested on: MOLT-4 leukemia
[10] = tested on: NCI-H23 lung
[11] = tested on: OVCAR-8 ovarian
[12] = tested on: RPMI-8226 leukemia
[13] = tested on: SW-620 colon
[14] = tested on: TK-10 renal
[15] = tested on: UACC-257 melanoma
[16] = tested on: UACC-62 melanoma
[17] = tested on: UO-31 renal
[18] = tested on: COLO 205 colon

Compound	TGI [1]	TGI [2]	TGI [3]	TGI [4]	TGI [5]	TGI [6]	TGI [7]	TGI [8]	TGI [9]	TGI [10]	TGI [11]	TGI [12]	TGI [13]	TGI [14]	TGI [15]	TGI [16]	TGI [17]	TGI [18]
CCN1C(=S)n2cccc2C1CC(=O)c1ccc(Cl)cc1 (stereo not drawn)	> 100 µM	> 100 µM	> 100 µM	> 100 µM	> 100 µM	> 100 µM	> 100 µM	> 100 µM	90.1 µM	> 100 µM	> 100 µM	> 100 µM	> 100 µM	> 100 µM	> 100 µM	> 100 µM	> 100 µM	–
Cc1cc2nc3c(C#N)c(-c4ccccc4)/c(=C\Nc4ccc(Cl)cc4)c(=O)n3c2cc1C	> 100 µM	> 100 µM	> 100 µM	> 100 µM	–	–	> 100 µM	> 100 µM	–	> 100 µM	> 100 µM	> 100 µM	> 100 µM	> 100 µM	> 100 µM	–	> 100 µM	> 100 µM
CCSC1=N/C(=C\c2ccco2)C(NN)=N1	> 50 µM	–	> 50 µM	> 50 µM	> 50 µM	> 50 µM	> 50 µM	> 50 µM	> 50 µM	> 50 µM	> 50 µM	> 50 µM	> 50 µM	> 50 µM	> 50 µM	> 50 µM	> 50 µM	> 50 µM
O=C(Nc1ccc(Cl)cc1)NS(=O)(=O)c1coc2ccccc2c1=O	> 10 µM	> 10 µM	> 10 µM	> 10 µM	> 10 µM	–	> 10 µM	> 10 µM	> 10 µM	> 10 µM	> 10 µM	> 10 µM	> 10 µM	> 10 µM	> 10 µM	> 10 µM	–	> 10 µM
C=CCOc1ccc(/C(N=Nc2ccc(C)cc2)=N/NC(=O)c2ccccc2)cc1OC	47.1 µM	76.5 µM	82.6 µM	> 100 µM	62.1 µM	–	41.5 µM	47.3 µM	> 100 µM	69.1 µM	91.4 µM	–	> 100 µM	> 100 µM	49.1 µM	31.6 µM	73.4 µM	66.1 µM
Cc1ccccc1N=CN(C)C	> 100 µM	–	> 100 µM	> 100 µM	> 100 µM	44.4 µM	> 100 µM	> 100 µM	> 100 µM	61.8 µM	> 100 µM	58.2 µM	–	> 100 µM	71.1 µM	> 100 µM	> 100 µM	> 100 µM
Cc1cc(N)ccc1N=Nc1ccc(S(=O)(=O)CCOS(=O)(=O)O)cc1	14.6 µM	6.74 µM	12.6 µM	11.3 µM	13.9 µM	–	2.97 µM	0.502 µM	> 32.5 µM	24.5 µM	5.89 µM	> 45.4 µM	16.1 µM	27.5 µM	24.3 µM	20.3 µM	8.63 µM	6.08 µM
